Test results from patent publication US9789082B2, “Somatostatin receptor subtype 4 (SSTR4) agonists” (Centrexion Therapeutics Corporation, priority 2013, dated 2017).

System: not listed separately
Test: Metabolic stability in pooled human liver microsomes (half-life)
Format: in vitro ADME
Settings: 37° C., 1 μM test compound
Description: The metabolic stability of the compounds according to the invention may be investigated as follows:
The metabolic degradation of the test compound is assayed at 37° C. with pooled human liver microsomes. The final incubation volume of 100 μl per time point contains TRIS buffer pH 7.6 at room temperature (0.1 M), magnesium chloride (5 mM), microsomal protein (1 mg/mL) and the test compound at a final concentration of 1 μM. Following a short preincubation period at 37° C., the reactions are initiated by addition of beta-nicotinamide adenine dinucleotide phosphate, reduced form (NADPH, 1 mM), and terminated by transferring an aliquot into solvent after different time points. After centrifugation (10000 g, 5 min), an aliquot of the supernatant is assayed by LC-MS/MS for the amount of parent compound. The half-life is determined by the slope of the semi-logarithmic plot of the concentration-time profile.

Compound | Half-life t1/2
CC(C)(NC(=O)[C@H]1[C@@H]2CNC[C@@H]21)c1n[nH]c2c(C(F)(F)F)cccc12 [Example 110] | >2.17 h

Same assay, conditions: pooled human liver microsomes, pH 7.6, 37° C., 1 μM test compound, read-out: Half-life t1/2

Compound | half-life at 1 μM
CC(NC(=O)[C@H]1[C@@H]2CNC[C@@H]21)c1nn(C)c2ccccc12 (single isomer, unassigned) [Example 113] | > 2.17 h
CC(NC(=O)[C@H]1[C@@H]2CNC[C@@H]21)c1nn(C)c2c(Cl)cccc12 (single isomer, unassigned) [Example 116] | > 2.17 h
Cc1cccc2c(C(C)NC(=O)[C@H]3[C@@H]4CNC[C@@H]43)nn(C)c12 (single isomer, unassigned) [Example 119] | > 2.17 h
O=C(NC1(Cc2ccccc2C(F)(F)F)CC1)[C@H]1[C@@H]2CNC[C@@H]21 [Example 2] | > 2.17 h
CC(C)(NC(=O)[C@H]1[C@@H]2CNC[C@@H]21)c1ccc(Cl)c(Cl)c1.Cl [Example 8] | > 2.17 h
C[C@H](NC(=O)[C@H]1[C@@H]2CNC[C@@H]21)c1cccc2ccccc12 [Example 10] | > 2.17 h
CC(C)(COc1ccccc1C(F)(F)F)NC(=O)[C@H]1[C@@H]2CNC[C@@H]21.Cl [Example 12] | > 2.17 h
Cc1cc(F)ccc1OCC(C)(C)NC(=O)[C@H]1[C@@H]2CNC[C@@H]21.Cl [Example 13] | > 2.17 h
Cn1nc(C(C)(C)NC(=O)[C@H]2[C@@H]3CNC[C@@H]32)c2cccc(Cl)c21 [Example 106] | > 2.17 h
Cc1cccc2c(C(C)(C)NC(=O)[C@H]3[C@@H]4CNC[C@@H]43)n(C)nc12 [Example 108] | > 2.17 h

Target: human Somatostatin 4 receptor (SSTR4) (Homo sapiens (Human), UniProt P31391)
Test: cAMP assay with human somatostatin 4 receptor (hSSTR4 expressing H4 cells)
Format: cell-based
Settings: cAMP assay, read-out: SSTR4 agonism EC50
Description: Camp Assay Method Description for cAMP Assay with Human Somatostatin 4 Receptor
The activation of the SSTR4 receptor (Gi coupled) causes an inhibition of intracellular cAMP after stimulation with Forskolin, which can be quantifiable by use of a suitable assay Kit and an adequate plate reader. This technique is used to characterize pharmacological effects of the SSTR4 receptor agonists by use of hSSTR4 expressing H4 cells.
Compounds are dissolved and diluted in DMSO. The final test solution contains 1% DMSO. […] Cells are centrifuged and suspended in assay buffer (incl. 1:100 diluted Alexa antibody).
For the assay 5 μl of a cell suspension (approximately 5000 cells/well)—incl. Alexa antibody (diluted 1:100) are added into a 384 well MTP microtitre plate excepting one row or column (depending on the plate layout), which is reserved for the standard curve. Then 2 μl of compound sample is added as concentration response curve (e.g. 1e-5 M to 6e-10 M), usually in triplicates. Each assay contains incubations with vehicle controls instead of compound as controls for non-inhibited cAMP generation (100% CTL; ‘high values’) and incubations with 1 μM Somatosatin as controls for full inhibition and background (0% CTL; […]). […] Then the plates are shaken briefly and incubated for 60 min at room temperature. After 60 min 10 μl of the detection mix is added into all wells followed by an additional incubation period of 1 h. The plates are read in a suitable plate reader.
From this ratio, cAMP concentrations are calculated from standard curve and the EC50 is estimated by least square curve fit program.
The EC50 values were obtained with the aid of the above described cAMP ASSAY.

Sequence of human Somatostatin 4 receptor (SSTR4) (P31391 whole entry): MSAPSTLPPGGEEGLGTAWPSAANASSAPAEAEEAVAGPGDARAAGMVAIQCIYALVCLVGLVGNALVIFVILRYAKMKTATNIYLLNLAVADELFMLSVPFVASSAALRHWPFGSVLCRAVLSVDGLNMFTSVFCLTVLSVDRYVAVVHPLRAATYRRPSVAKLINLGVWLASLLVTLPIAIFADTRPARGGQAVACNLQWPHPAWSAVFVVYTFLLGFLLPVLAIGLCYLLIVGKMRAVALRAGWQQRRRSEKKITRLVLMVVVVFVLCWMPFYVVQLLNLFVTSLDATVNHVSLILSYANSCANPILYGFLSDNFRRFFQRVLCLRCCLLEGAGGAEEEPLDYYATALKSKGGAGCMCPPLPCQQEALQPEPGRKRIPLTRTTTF

Compound | EC50
CC(NC(=O)[C@H]1[C@@H]2CNC[C@@H]21)c1nn(C)c2ccccc12 (single isomer, unassigned) [Example 113] | 19.2 nM
CC(NC(=O)[C@H]1[C@@H]2CNC[C@@H]21)c1nn(C)c2c(Cl)cccc12 (single isomer, unassigned) [Example 116] | 2.1 nM
Cc1cccc2c(C(C)NC(=O)[C@H]3[C@@H]4CNC[C@@H]43)nn(C)c12 (single isomer, unassigned) [Example 119] | 3.2 nM
O=C(NC1(Cc2ccccc2C(F)(F)F)CC1)[C@H]1[C@@H]2CNC[C@@H]21 [Example 2] | 56.5 nM
CC(C)(NC(=O)[C@H]1[C@@H]2CNC[C@@H]21)c1ccc(Cl)c(Cl)c1.Cl [Example 8] | 2.8 nM
C[C@H](NC(=O)[C@H]1[C@@H]2CNC[C@@H]21)c1cccc2ccccc12 [Example 10] | 10.7 nM
CC(C)(COc1ccccc1C(F)(F)F)NC(=O)[C@H]1[C@@H]2CNC[C@@H]21.Cl [Example 12] | 0.6 nM
Cc1cc(F)ccc1OCC(C)(C)NC(=O)[C@H]1[C@@H]2CNC[C@@H]21.Cl [Example 13] | 2.4 nM
CC(C)(COc1ccccc1F)NC(=O)[C@H]1[C@@H]2CNC[C@@H]21 [Example 41] | 194 nM
CC(C)(NC(=O)[C@H]1[C@@H]2CNC[C@@H]21)c1cnc2cccnn12 [Example 46] | 241 nM
CC(C)(NC(=O)[C@H]1[C@@H]2CNC[C@@H]21)c1nn(Cc2ccccc2)c2ccccc12 [Example 50] | 8.4 nM
CC(C)(COc1ccnc2ccccc12)NC(=O)[C@H]1[C@@H]2CNC[C@@H]21 [Example 54] | 66.6 nM
CC(C)(COc1cncc2ccccc12)NC(=O)[C@H]1[C@@H]2CNC[C@@H]21 [Example 55] | 30.9 nM
CC(C)(COc1cccn2ccnc12)NC(=O)[C@H]1[C@@H]2CNC[C@@H]21 [Example 61] | 1090 nM
CC(C)(COc1noc2ccccc12)NC(=O)[C@H]1[C@@H]2CNC[C@@H]21 [Example 62] | 207 nM
Cc1cncnc1OCC(C)(C)NC(=O)[C@H]1[C@@H]2CNC[C@@H]21 [Example 66] | 142 nM
CC(C)(NC(=O)[C@H]1[C@@H]2CNC[C@@H]21)c1ncc2ccncn12 [Example 69] | 749 nM
Cc1ccccc1OCC(C)(C)NC(=O)[C@H]1[C@@H]2CN(C(C)C)C[C@@H]21 [Example 72] | 362 nM
Cn1nc(C(C)(C)NC(=O)[C@H]2[C@@H]3CNC[C@@H]32)c2cc(F)ccc21 [Example 73] | 11.9 nM

Compound | EC50
CC(C)(NC(=O)[C@H]1[C@@H]2CNC[C@@H]21)c1c(Cl)nc2sccn12 [Example 81] | 143 nM
CC(C)(NC(=O)[C@H]1[C@@H]2CNC[C@@H]21)c1cn2ccccc2n1 [Example 84] | 840 nM
CC(C)(NC(=O)[C@H]1[C@@H]2CNC[C@@H]21)c1ccn2ccnc2c1 [Example 85] | 144 nM
CC(C)(NC(=O)[C@H]1[C@@H]2CNC[C@@H]21)c1ccc2nccn2c1 [Example 86] | 93.9 nM
CC(C)(NC(=O)[C@H]1[C@@H]2CNC[C@@H]21)c1nn(CC(F)(F)F)c2ccccc12 [Example 96] | 9.2 nM
CC(C)(NC(=O)[C@H]1[C@@H]2CNC[C@@H]21)c1nn(CC2CC2)c2ccccc12 [Example 97] | 12.4 nM
CC(C)n1nc(C(C)(C)NC(=O)[C@H]2[C@@H]3CNC[C@@H]32)c2ccccc21 [Example 98] | 19.9 nM
CC(C)(NC(=O)[C@H]1[C@@H]2CNC[C@@H]21)c1nn(C2CCOCC2)c2ccccc12 [Example 99] | 102 nM
Cc1cccc2c(C(C)NC(=O)[C@H]3[C@@H]4CNC[C@@H]43)nn(C)c12 (some centres unmarked) [Example 117] | 6.1 nM
CC(C)(NC(=O)[C@H]1[C@@H]2CNC[C@@H]21)c1ncc2ccc(C(F)(F)F)cn12 [Example 121] | 61.5 nM
CC(C)(NC(=O)[C@H]1[C@@H]2CNC[C@@H]21)c1ncc2cc(C(F)(F)F)ccn12 [Example 122] | 1340 nM
CC(C)(NC(=O)[C@H]1[C@@H]2CNC[C@@H]21)c1nc(Br)c2ccccn12 [Example 123] | 1.5 nM
CC(C)(NC(=O)[C@H]1[C@@H]2CNC[C@@H]21)c1ncc2c(C(F)(F)F)cccn12 [Example 124] | 15.4 nM
CC(C)(NC(=O)[C@H]1[C@@H]2CNC[C@@H]21)c1nc(C2=CCOCC2)c2ccccn12 [Example 125] | 97.6 nM
CC(C)(NC(=O)[C@H]1[C@@H]2CNC[C@@H]21)c1nc(C(F)(F)F)c2c(F)cccn12 [Example 127] | 31.9 nM
CC(C)(NC(=O)[C@H]1[C@@H]2CNC[C@@H]21)c1ncc2cnccn12 [Example 131] | 484 nM
CC(C)(NC(=O)[C@H]1[C@@H]2CNC[C@@H]21)c1nc(C#N)c2ccccn12 [Example 132] | 72.3 nM
CC(C)(NC(=O)[C@H]1[C@@H]2CNC[C@@H]21)c1ncc2cccc(F)n12 [Example 135] | 7.6 nM
CC(C)(NC(=O)[C@H]1[C@@H]2CNC[C@@H]21)c1ncc2ccc(F)cn12 [Example 136] | 6.4 nM

Compound | EC50
Cc1cc2c(C)nccc2c(C(C)(C)NC(=O)[C@H]2[C@@H]3CNC[C@@H]32)n1 [Example 144] | 47.7 nM
Cc1nc2ccccn2c1C(C)(C)NC(=O)[C@H]1[C@@H]2CNC[C@@H]21 [Example 147] | 13.3 nM
CC(C)(NC(=O)[C@H]1[C@@H]2CNC[C@@H]21)c1ncc2c(OC(F)(F)F)cccn12 [Example 152] | 26.1 nM
CC(C)(NC(=O)[C@H]1[C@@H]2CNC[C@@H]21)c1ncnc2c(F)cccc12 [Example 154] | 7.6 nM
COc1ccn2c(C(C)(C)NC(=O)[C@H]3[C@@H]4CNC[C@@H]43)nc(C)c2c1 [Example 155] | 94.7 nM
Cc1nc(C(C)(C)NC(=O)[C@H]2[C@@H]3CNC[C@@H]32)c2cccc(F)c2n1 [Example 157] | 36.9 nM
Cc1cccn2c([C@@H](C)NC(=O)[C@H]3[C@@H]4CNC[C@@H]43)ncc12 [Example 160] | 42.4 nM
Cc1nc(C(C)NC(=O)[C@H]2[C@@H]3CNC[C@@H]32)c2ccccc2n1 (some centres unmarked) [Example 161] | 764 nM
Cc1nc(C(C)NC(=O)[C@H]2[C@@H]3CNC[C@@H]32)c2cccc(C)c2n1 (some centres unmarked) [Example 162] | 128 nM
O=C(NC1(c2nc3ccc(Cl)cc3[nH]2)CCOC1)[C@H]1[C@@H]2CNC[C@@H]21 (some centres unmarked) [Example 169] | 313 nM
Cc1ccc(C(C)(C)NC(=O)[C@H]2[C@@H]3CNC[C@@H]32)c(C)n1 [Example 172] | 520 nM
CC(C)(NC(=O)[C@H]1[C@@H]2CNC[C@@H]21)C1COc2ccccc21 (some centres unmarked) [Example 173] | 237 nM
Cn1nc(C(C)(C)NC(=O)[C@H]2[C@@H]3CNC[C@@H]32)c2c1CCCC2 [Example 176] | 1.2 nM
Cc1cc(C)c(C(C)(C)NC(=O)[C@H]2[C@@H]3CNC[C@@H]32)cn1 [Example 177] | 9.1 nM
CC(C)(NC(=O)[C@H]1[C@@H]2CNC[C@@H]21)C1CCOc2ccccc21 (some centres unmarked) [Example 178] | 22.4 nM
CC(C)(NC(=O)[C@H]1[C@@H]2CNC[C@@H]21)c1ncc2n1CCCC2 [Example 181] | 41.3 nM
Cc1cccn2c(C3(NC(=O)[C@H]4[C@@H]5CNC[C@@H]54)CCOCC3)ncc12 [Example 182] | 68.5 nM
Cc1cccn2c(C(C)(NC(=O)[C@H]3[C@@H]4CNC[C@@H]43)C3CC3)ncc12 (some centres unmarked) [Example 183] | 9.9 nM
Cc1cccn2c(C(C)(C)NC(=O)[C@H]3[C@@H]4CNC[C@@H]43)ccc12 [Example 184] | 0.4 nM
